What was measured:
[1] = tested on: acid secretion in the gastric lumen-perfused rat; test: Inhibition of acid secretion in the gastric lumen-perfused rat; type: in vivo; settings: Sprague-Dawley rat, pentagastrin-stimulated acid secretion, intravenous bolus or intraduodenal administration
Description: Acid secretion in the gastric lumen-perfused rat was measured according to Watanabe et al. [Watanabe K et al., J. Physiol. (Paris) 2000; 94: 111-116].
Male Sprague-Dawley rats, 8 weeks old, deprived of food for 18 hours before the experiment with free access to water, were anesthetized with urethane (1.4 g/kg, i.p.) and tracheotomized. After a middle abdominal incision, a dual polyethylene cannula was inserted into the forestomach and the stomach was perfused with saline (37° C., pH 5.0) at a rate of 1 ml/min. The acid output in the perfusate was determined at 5 minutes interval by titration with 0.02 M NaOH to pH 5.0. After the determination of basal acid secretion for 30 min, the acid secretion was stimulated by a continuous intravenous infusion of pentagastrin (16 μg/kg/h). The test compounds were administered by an intravenous bolus injection or intraduodenal administration after the stimulated acid secretion reached a plateau phase. The acid secretion was monitored after the administration.

[2] = biological target: T1, Porcine gastric H+/K+-ATPase (Sus scrofa, UniProt P19156); test: Ion-leaky porcine gastric H+/K+-ATPase inhibition; type: biochemical; settings: ion-leaky vesicles, 5 mM KCl, pH 6.4, 37° C., 30 minutes
T1 construct: The gastric vesicles were collected from interface on 0.25 M sucrose layer containing 7% Ficoll; from tissue; host or cells: mucous membrane of fresh porcine stomachs (gastric vesicles)
Description: The porcine gastric vesicles for Porcine gastric H^+/K^+-ATPase inhibition assays were prepared from mucous membrane in fresh porcine stomachs by homogenization with a tight-fitted polytetrafluoroethylene (Teflone®) homogenizer in 0.25 M sucrose at 4° C. The crude pellet was removed with centrifugation at 20,000 g for 30 min. Then supernatant was centrifuged at 100,000 g for 30 min. The resulting pellet was re-suspended in 0.25 M sucrose, and then subjected to density gradient centrifugation at 132,000 g for 90 min. The gastric vesicles were collected from interface on 0.25 M sucrose layer containing 7% Ficoll™ PM400(Amersham Biosciences). This procedure was performed in a cold room.
Ion-leaky porcine gastric H^+/K^+-ATPase-inhibition was measured according to the modified method described in Biochemical Pharmacology, 1988, 37, 2231-2236.
The isolated vesicles were lyophilized, and then kept in deep-freezer until use. For enzyme assay, lyophilized vesicles were reconstituted with 3 mM MgSO4 containing 40 mM Bis-tris (pH 6.4 at 37° C.).
Enzyme reaction was performed incubating 5 mM KCl, 3 mM Na2ATP, 3 mM MgSO4 and 1.0 μg of reconstituted vesicles for 30 minutes at 37° C. in a final 60 μl of reaction mixture (40 mM Bis-tris, pH 6.4) with or without the test compound. Enzyme reaction was stopped by adding 10% sodium dodecyl sulphate (SDS). Released inorganic phosphate from ATP was detected by incubation with mixture of 1 part of 35 mM ammonium molybdate tetrahydrate in 15 mM Zinc acetate hydrate and 4 parts of 10% ascorbic acid (pH 5.0), resulting in phosphomolybdate, which has optical density at 750 nm.

T1 sequence (P19156 2-1034 limits assumed): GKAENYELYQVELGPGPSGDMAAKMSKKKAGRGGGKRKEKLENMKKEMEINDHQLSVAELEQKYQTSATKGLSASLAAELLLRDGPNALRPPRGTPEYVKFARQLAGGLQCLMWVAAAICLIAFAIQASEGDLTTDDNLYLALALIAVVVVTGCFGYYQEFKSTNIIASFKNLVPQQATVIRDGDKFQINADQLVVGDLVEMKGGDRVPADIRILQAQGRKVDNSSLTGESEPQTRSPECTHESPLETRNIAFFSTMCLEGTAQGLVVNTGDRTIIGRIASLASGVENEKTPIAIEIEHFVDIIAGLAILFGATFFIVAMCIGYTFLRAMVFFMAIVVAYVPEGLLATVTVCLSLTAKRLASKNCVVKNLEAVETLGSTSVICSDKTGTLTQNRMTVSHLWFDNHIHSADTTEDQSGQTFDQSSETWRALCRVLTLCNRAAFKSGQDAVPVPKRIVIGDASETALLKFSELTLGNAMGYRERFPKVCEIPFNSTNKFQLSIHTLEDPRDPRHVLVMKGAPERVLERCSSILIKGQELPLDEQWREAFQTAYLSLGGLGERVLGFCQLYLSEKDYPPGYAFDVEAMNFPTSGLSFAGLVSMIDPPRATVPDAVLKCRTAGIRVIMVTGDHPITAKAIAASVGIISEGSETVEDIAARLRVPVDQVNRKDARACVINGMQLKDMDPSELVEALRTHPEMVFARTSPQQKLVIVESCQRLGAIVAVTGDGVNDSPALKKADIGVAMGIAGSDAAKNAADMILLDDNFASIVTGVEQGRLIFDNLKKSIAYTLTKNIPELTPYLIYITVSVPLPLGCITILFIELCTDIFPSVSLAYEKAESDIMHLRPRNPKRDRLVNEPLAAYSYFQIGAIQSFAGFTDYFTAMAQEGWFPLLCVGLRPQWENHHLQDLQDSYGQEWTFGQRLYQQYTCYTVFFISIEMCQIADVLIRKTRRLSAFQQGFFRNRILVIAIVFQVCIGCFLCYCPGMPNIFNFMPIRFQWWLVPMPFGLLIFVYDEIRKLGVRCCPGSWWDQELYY
T1 sequence (P18434 whole entry partner): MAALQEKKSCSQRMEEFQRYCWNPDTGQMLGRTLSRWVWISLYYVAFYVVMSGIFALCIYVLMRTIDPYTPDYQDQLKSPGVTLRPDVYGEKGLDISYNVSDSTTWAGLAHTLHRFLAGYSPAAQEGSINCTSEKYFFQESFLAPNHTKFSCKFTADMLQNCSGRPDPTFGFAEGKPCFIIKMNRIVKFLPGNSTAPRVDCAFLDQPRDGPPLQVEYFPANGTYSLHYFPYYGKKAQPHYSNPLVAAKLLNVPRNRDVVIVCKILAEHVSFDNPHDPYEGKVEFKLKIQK

Cc1cccc2c1C(Nc1cc(C(=O)N(C)CCO)cn3c(C)c(C)nc13)CCO2 (single isomer, unassigned; (+)) [Example 5-3, (+)-N-(2-Hydroxyethyl)-N,2,3-trimethyl-8-[(5-methyl-3,4-dihydro-2H-chromen-4-yl)amino]imidazo[1,2-a]pyridine-6-carboxamide]
inhibitory activity (inhibition of acid secretion) [1]: good inhibitory activity | IC50 [2]: 93 nM

Source: patent publication US20090291977A1, “Chromane Derivatives Useful As Acid Pump Antagonists” (priority 2004, published 2009)
